Where “and” joins values, the source holds several entries; their conditions need not be identical. Equal values may be shown once. Inconclusive results and toxic doses are left out.

The subject of this test is BDF1 mice, B16 melanoma ip, median survival T/C. Nature of the test: NCI In Vivo Anticancer Drug Screen. Data for tumor model B16 Melanoma (intraperitoneal) in B6D2F1 (BDF1) mice. The conditions noted are these: endpoint: median survival time, higher = longer survival. In short, it runs like this: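 Read-out: survival or tumor size, given as treated/control ratio. Controls received vehicle only; animals bore transplantable tumors.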

The mark [1] stands for this setting: dose: 5.0 mg/kg/injection, schedule: Q01DX009 (ip), vehicle: saline.
[2] abbreviates: dose: 10.0 mg/kg/injection, schedule: Q01DX009 (ip), vehicle: saline.
[3] abbreviates: dose: 20.0 mg/kg/injection, schedule: Q01DX009 (ip), vehicle: saline.
The mark [4] stands for this setting: dose: 4.0 mg/kg/injection, schedule: Q01DX009 (ip), vehicle: saline.
Setting [5] is: dose: 100.0 mg/kg/injection, schedule: Q01DX009 (ip), vehicle: saline with Tween-80.
Where [6] appears, read: dose: 200.0 mg/kg/injection, schedule: Q01DX009 (ip), vehicle: saline with Tween-80.
[7] abbreviates: dose: 25.0 mg/kg/injection, schedule: Q01DX009 (ip), vehicle: saline.
Where [8] appears, read: dose: 50.0 mg/kg/injection, schedule: Q01DX009 (ip), vehicle: Klucel (hydroxypropylcellulose) (HPC).
[9] abbreviates: dose: 100.0 mg/kg/injection, schedule: Q01DX009 (ip), vehicle: Klucel (hydroxypropylcellulose) (HPC).
[10] abbreviates: dose: 200.0 mg/kg/injection, schedule: Q01DX009 (ip), vehicle: Klucel (hydroxypropylcellulose) (HPC).

As to `CC(C)NCC(=O)c1ccc(O)c(O)c1`, the T/C under setting [1] is 115 % of control; the T/C under setting [2] is 114 % of control; the T/C under setting [3] is 116 % of control; the T/C (dose: 40.0 mg/kg/injection, schedule: Q01DX009 (ip), vehicle: saline) is 110 % of control; the T/C (dose: 100.0 mg/kg/injection, schedule: Q01DX009 (ip), vehicle: saline) was 113 % of control; the T/C (dose: 100.0 mg/kg/injection, schedule: Q04DX003 (ip), vehicle: saline) is 108 % of control. In addition, the T/C (dose: 200.0 mg/kg/injection, schedule: Q01DX009 (ip), vehicle: saline) is 106 % of control; the T/C (dose: 200.0 mg/kg/injection, schedule: Q04DX003 (ip), vehicle: saline) was 106 % of control; the T/C (dose: 400.0 mg/kg/injection, schedule: Q04DX003 (ip), vehicle: saline) is 97 % of control.

For the compound `O=C(O)c1[nH]c(=O)[nH]c(=O)c1F`, the T/C reads like this: (dose: 2.0 mg/kg/injection, schedule: Q01DX009 (ip), vehicle: saline) 92 % of control; under setting [4], 95 % of control.

Regarding `COc1cc2c(cc1O)C(=O)CCCC2`, the T/C was 107 % of control under setting [5]; 101 % of control under setting [6]; 89 % of control and 101 % of control (dose: 400.0 mg/kg/injection, schedule: Q01DX009 (ip), vehicle: saline with Tween-80).

Take `CCc1ncnc2cc(OCC3CO3)c(OC)cc12` (configuration not stated): the T/C (dose: 6.25 mg/kg/injection, schedule: Q01DX009 (ip), vehicle: saline with Tween-80) was 109 % of control; the T/C (dose: 20.0 mg/kg/injection, schedule: Q04DX003 (ip), vehicle: other) is 114 % of control; the T/C under setting [7] was 154 % of control.

Turning to `CCN(CC)c1ccc(C=Nc2cccc(C(F)(F)F)c2)cc1`, the T/C under setting [8] was 103 % of control, the T/C under setting [9] is 96 % of control and the T/C under setting [10] was 96 % of control.

For the compound `c1ccc(C2CN3CCSC3=N2)cc1` (configuration not stated), the T/C runs as follows: (dose: 1.56 mg/kg/injection, schedule: Q01DX009 (ip), vehicle: saline) 103 % of control; (dose: 3.12 mg/kg/injection, schedule: Q01DX009 (ip), vehicle: saline) 104 % of control; (dose: 6.25 mg/kg/injection, schedule: Q01DX009 (ip), vehicle: saline) 96 % of control; (dose: 12.5 mg/kg/injection, schedule: Q01DX009 (ip), vehicle: saline) 94 % of control; under setting [7], 100 % of control.

With `CC[C@@H]1O[C@H]2O[C@@H](/C=C/C=C/C=C/c3oc(=O)cc(OC)c3C)[C@@H](O)[C@@]2(C)[C@]1(C)O`, the T/C is 94 % of control (dose: 0.5 mg/kg/injection, schedule: Q01DX009 (ip), vehicle: Klucel (hydroxypropylcellulose) (HPC)); 90 % of control (dose: 1.0 mg/kg/injection, schedule: Q01DX009 (ip), vehicle: Klucel (hydroxypropylcellulose) (HPC)); 92 % of control (dose: 2.0 mg/kg/injection, schedule: Q01DX009 (ip), vehicle: Klucel (hydroxypropylcellulose) (HPC)).

For the compound `CC1OC(OCC2OC(Oc3c(-c4ccc(O)c(OS(=O)(=O)O)c4)oc4cc(O)cc(O)c4c3=O)C(O)C(O)C2O)C(O)C(O)C1O` (configuration not stated), the T/C was 101 % of control under setting [4]; 105 % of control (dose: 8.0 mg/kg/injection, schedule: Q01DX009 (ip), vehicle: saline); 101 % of control (dose: 16.0 mg/kg/injection, schedule: Q01DX009 (ip), vehicle: saline); 100 % of control (dose: 32.0 mg/kg/injection, schedule: Q01DX009 (ip), vehicle: saline); 103 % of control (dose: 64.0 mg/kg/injection, schedule: Q01DX009 (ip), vehicle: saline).

As for `CCC(C)C#N` (configuration not stated), the T/C was 97 % of control under setting [1], 95 % of control under setting [2] and 100 % of control under setting [3].

Take `CCCCNC(=O)OCC(C)(CCC)COC(N)=O` (configuration not stated): the T/C runs as follows: under setting [8], 92 % of control; under setting [9], 92 % of control; under setting [10], 94 % of control.

Consider `COC(=O)C(Br)C1CCCCC1` (configuration not stated), for which the T/C is 100 % of control (dose: 50.0 mg/kg/injection, schedule: Q01DX009 (ip), vehicle: saline with Tween-80); 103 % of control under setting [5]; 99 % of control under setting [6].

(Values after PubChem BioAssay AID192 (DTP/NCI, 2004).)
